Tested on: Pt#3-R-induced tumor
Assay: In vivo anti-GBM efficacy, Pt3R xenograft
Settings: 20 mg/kg, intraperitoneally twice per week, NOD.CB17-Prkdc scid mice
Method: In vivo anti-GBM efficacy of compound 7 was also evaluated in this study. For the in vivo study, experimental NOD.CB17-Prkdc^scid/NCrCrl mice (8-week-old) were used and Pt3R cells (1 × 10^6) in 50 μL Dulbecco’s modified Eagle’s medium (DMEM) were injected into the back of mice. After 10 days, the tumor was detectable. […] In a nutshell, the outcome of the in vivo study ascertains that the remarkable in vitro anti-GBM activity profile of dual inhibitor 7 was translated to the in vivo potential.
Animal experiments were approved by the institutional animal care and use committee of Taipei Medical University (IACUC: LAC2022-0288). Male NOD.CB17-Prkdc^scid/NCrCrl mice (8-week-old) were purchased from BioLASCO Taiwan Co., Ltd. (Taipei, Taiwan). Pt3R cells (1 × 10^6) in 50 μL of DMEM were injected into the back of mice. Experimental mice were grouped as follows (Figure 11): DMSO (n = 5), C7–10 mg/kg (n = 4), C7–20 mg/kg (n = 6), TAZ-10 mg/kg (n = 6), TAZ-20 mg/kg (n = 8), STA-5+TAZ-5 mg/kg (n = 7), STA-10+TAZ-10 mg/kg (n = 7) and STA-15+TAZ-15 mg/kg (n = 7). After 10 days, the tumor was touchable. Mice were injected intraperitoneally with DMSO (the control group) or compounds twice per week.

SMILES: CCN(c1cc(-c2cccc(N(C)C(=O)c3cc(C(C)C)c(O)cc3O)c2)cc(C(=O)NCc2c(C)cc(C)[nH]c2=O)c1C)C1CCOCC1 [Compound 7, 3′-(2,4-Dihydroxy-5-isopropyl-N-methylbenzamido)-N-((4,6-dimethyl-2-oxo-1,2-dihydropyridin-3-yl)methyl)-5-(ethyl(tetrahydro-2H-pyran-4-yl)amino)-4-methyl-[1,1′-biphenyl]-3-carboxamide]
- growth of Pt#3-R-induced tumor: significantly decreased the growth

From article PMC10895674, “First-in-Class Dual EZH2-HSP90 Inhibitor Eliciting Striking Antiglioblastoma Activity In Vitro and In Vivo” (Journal of Medicinal Chemistry, 2024)
